Results on two compounds are retold here after publication PMC11280475, “Investigation of Stabilized Amorphous Solid Dispersions to Improve Oral Olaparib Absorption” (Pharmaceutics, 2024).

The nature of series [1]: Kinetic solubility of OLA in 1% (w/v) polymer solutions. The format is physicochemical. To be noted: thermodynamic from solid, amorphous OLA. On the procedure:
(§1) The polymers used to select the appropriate polymer for OLA-SD were chosen from those widely utilized in solid dispersions. To select the polymers for the solid dispersion system, the solubility of OLA in 1% (w/v) polymer solutions was assessed. Initially, 10 mg of crystalline OLA was added to 1 mL of each polymer solution, vortexed for 10 min, and then shaken at 100 rpm in a 37 °C water bath for 72 h. This process followed the saturation solubility evaluation method described in Section 2.3. Subsequently, to evaluate the kinetic solubility of OLA, both crystalline and amorphous forms, totaling 10 mg, were added to 10 mL of the selected polymer solutions, based on the results of the OLA saturation solubility tests. After vortexing for 10 min, the samples were shaken under the same conditions. During this 72 h period, samples were collected at predetermined intervals of 1, 6, 12, 24, 48, and 72 h, and the concentration of OLA was measured through HPLC analysis.

Series [2] is described as follows: In vivo pharmacokinetic study after oral administration. The conditions noted are these: rats, 20 mg/kg; for AUC(0-t): read-out: AUC0–24. The arrangement: species or system Sprague Dawley (SD) rats. On the procedure:
Male Sprague Dawley (SD) rats (age: 9–10 weeks, weight: 250 ± 20 g) for the in vivo pharmacokinetic study of OLA-SD were purchased from Koatech Co. (Pyeongtaek, Republic of Korea). The rats were acclimatized to standard laboratory conditions (average temperature of 25 ± 2 °C and a 12/12 h light/dark cycle) for one week before the experiment, with unrestricted access to food and drinking water ad libitum. The Institutional Animal Care and Use Committee (IACUC) of Gyeongsang National University (Approval No. GNU-240228-R0049) approved the animal study protocol in accordance with NIH policies and the Animal Welfare Act. The SD rats were randomly divided into four groups, each consisting of six rats. Each rat was anesthetized, and the right femoral artery was cannulated using a polyethylene tube. Crystalline OLA, amorphous OLA, Kollidon VA64-based OLA-SD (F1), and HPMC P645-based OLA-SD (F3) were dispersed in 1 mL of 0.5% carboxymethyl cellulose and administered orally to the rats at a dose of 20 mg/kg. Blood (350 μL) was collected through the cannulated tube at 0.25, 0.5, 1, 2, 3, 6, 9, 12, and 24 h and immediately centrifuged at 13,500 rpm for 15 min at 4 °C. Subsequently, plasma was separated from the supernatant and stored at −20 °C until quantitative analysis. To analyze the plasma samples, 50 μL of internal standard solution (canagliflozin 20 μg/mL in acetonitrile) and 300 μL of acetonitrile were added to 150 μL of plasma. The samples were then mixed in a vortex blender for 3 min for deproteinization and drug extraction. Subsequently, the samples were centrifuged at 13,500 rpm for 15 min at 4 °C. The supernatant was filtered using a 0.2 μm filter and transferred to analytical vials for HPLC analysis. The concentration of OLA in plasma was analyzed using the second HPLC conditions mentioned in Section 2.2. Pharmacokinetic parameters calculated using non-compartmental analysis included the area under the plasma concentration–time curve from 0 to 24 h (AUC0–24), the maximum plasma concentration (Cmax), the time to reach maximum plasma concentration (Tmax), the elimination rate constant (Kel), the half-life (T1/2), and the mean residence time (MRT).
The formula for calculating AUC is as follows: AUC=∑i=1n−1(Ci+Ci+1)/2×[…] where Ci and Ci+1 are the concentration of the drug at consecutive time points, ti and ti+1 are the corresponding time points, and n is the number of measured data points.
The formula for calculating Cmax is as follows: Cmax=max(Ct) where Ct is the concentration of the drug at time t.
The formula for calculating Tmax is Tmax=t at which Ct is maximal
The formula for calculating Kel is […] where C1 and C2 are the concentration of the drug at two consecutive time points during the elimination phase, and t1 and t2 are the corresponding time points.
The formula for calculating T1/2 is T1/2=ln2/Kel where Kel is the elimination rate constant.
The formula for calculating MRT is MRT=AUMC/AUC where AUMC is the area under the moment curve and AUC is the area under the curve.

Series [3] in a line: Saturation solubility of OLA in aqueous solutions. To be noted: pH 1.2, pH 4.0, pH 6.8, regardless of pH, 37 °C. The format is physicochemical. On the procedure:
The solubility of OLA was evaluated in distilled water (D.W.), pH 1.2, pH 4.0, and pH 6.8 solutions. The pH 1.2 solution was prepared using 0.1 M hydrochloric acid and sodium chloride, while the pH 4.0 solution utilized a 0.05 M sodium acetate buffer solution, and the pH 6.8 solution was made by combining a 0.2 M potassium dihydrogen phosphate solution with a 0.2 M sodium hydroxide solution. To determine the saturation solubility, an excess amount of both crystalline OLA and amorphous OLA, totaling 10 mg each, was added to 1 mL of each solution. The mixtures were vortexed for 10 min and then shaken at 100 rpm in a 37 °C water bath for 72 h. After centrifugation at 13,500 rpm for 10 min, the supernatant was filtered through a 0.45 μm syringe filter to remove insoluble OLA. The resultant solution was diluted tenfold with the HPLC mobile phase, and the concentration of OLA in each solution was measured using the HPLC system mentioned in Section 2.2. Subsequently, to assess the kinetic solubility of OLA, a dissolution test was conducted using 150 mg of both crystalline and amorphous OLA in 900 mL of each aforementioned solution. […] Samples (3 mL) were taken at predetermined times (0.5, 1, 2, 3, 4, 6, 12 h), filtered through a 0.45 μm syringe filter, diluted tenfold with the HPLC mobile phase, and analyzed using the same HPLC system. […]

Series [4] in a line: In vitro dissolution test (USP apparatus II). The conditions noted are these: 300 mL, 37 °C, 50 rpm, 150 mg OLA equivalent. The format is physicochemical. On the procedure:
To assess the in vitro release of OLA from the solid dispersions, a dissolution test was performed under conditions similar to those described in Section 2.3. Briefly, the dissolution media were adjusted to pH 1.2 and pH 6.8 (300 mL each), with the temperature maintained at 37 ± 0.5 °C, and the test was conducted at a paddle speed of 50 rpm. Each sample of the OLA-SD, equivalent to 150 mg of OLA, was immersed in the dissolution media. Additionally, to examine the effect of polymers in the solid dispersion, a parallel dissolution test was conducted with 150 mg each of crystalline OLA and amorphous OLA. As mentioned, the solution was sampled at predetermined times (1, 6, 12, 18, 24, 48, and 72 h) and the concentration of OLA was assessed using an HPLC system. Additionally, after the kinetic dissolution tests in the pH 1.2 solution, the solution was centrifuged, the supernatant was removed, and the remaining OLA-SD residue was dried overnight for 12 h. The crystallinity state of the dried OLA-SD was examined using an X-ray diffractometer. The detailed method is described in Section 2.6.3.

The nature of series [5]: Saturation solubility of crystalline OLA in 1% (w/v) polymer solutions. The format is physicochemical. To be noted: 37 °C. On the procedure:
as §1

The conditions of series [6]: cited from earlier work.
Setting [7] is: male, Sprague Dawley, rat, plasma, po, mean ± S.D. (n = 6).

SMILES strings stand for the structures. In brackets after ≈: the same amount, converted by molar mass. Like-named read-outs stand apart in the source and are kept apart here. A value given as a limit tells only on which side of the number the result lay.

Regarding `O=C(c1cc(Cc2n[nH]c(=O)c3ccccc23)ccc1F)N1CCN(C(=O)C2CC2)CC1` [Amorphous OLA, olaparib], the solubility (kinetic) at 1 h stood at 337 ± 29.7 µg/mL (≈ 775 µM) in series [1] (1% (w/v) HP-β-CD solution, aqueous with cosolvent or surfactant or cyclodextrin, 1% (w/v) HP-β-CD, 37 °C, read-out: kinetic solubility in HP-β-CD at 1 h); 247 ± 43.6 µg/mL (≈ 569 µM) in series [1] (1% (w/v) HPMC P645 solution, 1% (w/v) HPMC P645, 37 °C, read-out: kinetic solubility in HPMC P645 at 1 h); 593 ± 72.9 µg/mL (≈ 1360 µM) in series [1] (1% (w/v) Kollidon VA64 solution, 1% (w/v) Kollidon VA64, 37 °C, read-out: kinetic solubility in Kollidon VA64 at 1 h). The solubility (kinetic) at 72 h in series [1] (1% (w/v) HP-β-CD solution, aqueous with cosolvent or surfactant or cyclodextrin, 1% (w/v) HP-β-CD, 37 °C, read-out: kinetic solubility in HP-β-CD at 72 h) was found to be 398 ± 10.9 µg/mL (≈ 916 µM); in series [1] (1% (w/v) HPMC P645 solution, 1% (w/v) HPMC P645, 37 °C, read-out: kinetic solubility in HPMC P645 at 72 h), 353 ± 44.2 µg/mL (≈ 813 µM); in series [1] (1% (w/v) Kollidon VA64 solution, 1% (w/v) Kollidon VA64, 37 °C, read-out: kinetic solubility in Kollidon VA64 at 72 h), 343 ± 6.5 µg/mL (≈ 790 µM). The figures for the AUC0–24 in series [2] and in series [2] (mean ± S.D. (n = 6)) were 471 ± 150 ng·h/mL and 471.40 ± 150.17 ng·h/mL, respectively. The results for the peak concentration (Cmax) in series [2] and in series [2] (mean ± S.D. (n = 6)) were 415 ± 148 ng/mL and 415.24 ± 148.20 ng/mL, respectively. Also, the “increase of AUC0–24 over crystalline OLA” value in series [2] (compared to crystalline OLA) came to 1.27 fold. Besides, in series [2] (compared to crystalline OLA), the “increase of Cmax over crystalline OLA” value is 2.22 fold. This compound showed a Kel in series [2] (mean ± S.D. (n = 6)) of 0.20 ± 0.05 h⁻¹. Moreover, the MRT in series [2] (mean ± S.D. (n = 6)) is given as 4.28 ± 4.52 h. In series [2] (mean ± S.D. (n = 6)), this compound registered a T1/2 of 3.68 ± 1.04 h. The Tmax in series [2] (mean ± S.D. (n = 6)) is 0.29 ± 0.10 h. In addition, the saturation solubility result in series [3] (72 h) is “around 100 µg/mL”. For the same compound, the dissolution rate in series [4] (pH 1.2, 1 h) came to 43.4 ± 3.3%; in series [4] (pH 1.2, 72 h), 28.2 ± 3.9%; in series [4] (pH 6.8, 1 h), 44.6 ± 3.1%; in series [4] (pH 6.8, 72 h) it was 27.0 ± 3.0%.

As to `O=C(c1cc(Cc2n[nH]c(=O)c3ccccc23)ccc1F)N1CCN(C(=O)C2CC2)CC1` [Crystalline OLA, olaparib], the solubility at 72 h was ~180 µg/mL (≈ 414 µM) in series [5] (crystalline OLA in 1% (w/v) HP-β-CD solution, read-out: saturation solubility in HP-β-CD); < 150 µg/mL in series [5] (crystalline OLA in 1% (w/v) polymer solutions other than HP-β-CD, read-out: saturation solubility in most other polymer solutions); ~100 µg/mL (≈ 230 µM) in series [3] (aqueous pH solutions). The compound further gave a half-life in series [2] (setting [7]) of 4.18 ± 2.27 h. In series [2] (setting [7]), this compound had a k el of 5.28e-05 s⁻¹. For the same compound, the AUC(0-t) was found to be 370 ± 63.8 ng·h/mL in series [2] (setting [7]) and 370 ± 63.8 ng·h/mL in series [2] (male, Sprague Dawley, rat, plasma, po). Besides, the MRT in series [2] (male, Sprague Dawley, rat, plasma, po, mean ± S.D. (n = 6), read-out: MRT) was 2.97 ± 0.69 h. Moreover, the results for the Cmax in series [2] and in series [2] (mean ± S.D. (n = 6)) were 187 ± 82.5 ng/mL and 187.31 ± 82.55 ng/mL, respectively. Moreover, in series [2] (mean ± S.D. (n = 6)), the Tmax is listed as 0.63 ± 0.31 h. In addition, the “solubility in aqueous solution” value in series [6] (aqueous solution) is given as “approximately 0.1 mg/mL”. The “basic pKa” value in series [6] is recorded as −1.25. Further, in series [6] (low solubility and low permeability), the “Biopharmaceutics Classification System (BCS) class” value is “class IV”.

The term kinetic solubility denotes solubility judged after dilution from a stock solution rather than from solid. In general, Cmax refers to the highest concentration seen after dosing. As usually defined, the MRT is a mean duration of stay, worked out from the concentration-time curve. Usually Tmax stands for the time at which the peak concentration occurs. One may read the half-life as the time needed for the level to fall by half in the phase considered. Higher therefore signals slow decline.
